Source: PubChem BioAssay AID330 (DTP/NCI, 2004)
Several values for one entry are separate records, joined by “and”; a condition that tells them apart may be missing. Equal values may be shown once. Toxic doses and inconclusive results are not listed.

Tested on: P388 leukemia ip, CD2F1 mice, survival T/C
Test: NCI In Vivo Anticancer Drug Screen. Data for tumor model P388 Leukemia (intraperitoneal) in CD2F1 (CDF1) mice
Settings: endpoint: median survival time, higher = longer survival
Outline: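 Mice carrying the transplanted tumor received test compound or vehicle. Survival was recorded in each group, and the value is the treated-group measurement divided by that of the vehicle-treated control group.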

[1] = dose: 100.0 mg/kg/injection, schedule: Q01DX009 (ip), vehicle: saline
[2] = dose: 200.0 mg/kg/injection, schedule: Q01DX009 (ip), vehicle: saline
[3] = dose: 50.0 mg/kg/injection, schedule: Q01DX009 (ip), vehicle: Klucel (hydroxypropylcellulose) (HPC)
[4] = dose: 100.0 mg/kg/injection, schedule: Q01DX009 (ip), vehicle: Klucel (hydroxypropylcellulose) (HPC)
[5] = dose: 200.0 mg/kg/injection, schedule: Q01DX009 (ip), vehicle: Klucel (hydroxypropylcellulose) (HPC)
[6] = dose: 6.25 mg/kg/injection, schedule: Q01DX009 (ip), vehicle: saline with Tween-80
[7] = dose: 12.5 mg/kg/injection, schedule: Q01DX009 (ip), vehicle: saline with Tween-80
[8] = dose: 25.0 mg/kg/injection, schedule: Q01DX009 (ip), vehicle: saline with Tween-80
[9] = dose: 50.0 mg/kg/injection, schedule: Q01DX009 (ip), vehicle: saline with Tween-80
[10] = dose: 100.0 mg/kg/injection, schedule: Q01DX009 (ip), vehicle: saline with Tween-80
[11] = dose: 60.0 mg/kg/injection, schedule: Q01DX005 (ip), vehicle: saline with Tween-80
[12] = dose: 120.0 mg/kg/injection, schedule: Q01DX005 (ip), vehicle: saline with Tween-80
[13] = dose: 50.0 mg/kg/injection, schedule: Q01DX009 (ip), vehicle: saline
[14] = dose: 50.0 mg/kg/injection, schedule: Q01DX005 (ip), vehicle: saline
[15] = dose: 100.0 mg/kg/injection, schedule: Q01DX005 (ip), vehicle: saline
[16] = dose: 60.0 mg/kg/injection, schedule: Q01DX005 (ip), vehicle: Klucel (hydroxypropylcellulose) (HPC)
[17] = dose: 120.0 mg/kg/injection, schedule: Q01DX005 (ip), vehicle: Klucel (hydroxypropylcellulose) (HPC)
[18] = dose: 240.0 mg/kg/injection, schedule: Q01DX005 (ip), vehicle: Klucel (hydroxypropylcellulose) (HPC)

`CCN(CC)c1ccc(N=Nc2ccc(C)cc2)cc1` was tested, and the T/C [1] was 89 % of control, the T/C [2] was 103 % of control and the T/C (dose: 400.0 mg/kg/injection, schedule: Q01DX009 (ip), vehicle: saline) was 90 % of control.
In the case of `CC(=O)Nc1ccc(C(=O)CN(Cc2ccccc2)Cc2ccccc2)cc1`, the T/C (dose: 50.0 mg/kg/injection, schedule: Q01DX005 (ip), vehicle: Klucel (hydroxypropylcellulose) (HPC)) is reported as 87 % of control and the T/C (dose: 100.0 mg/kg/injection, schedule: Q01DX005 (ip), vehicle: Klucel (hydroxypropylcellulose) (HPC)) is reported as 87 % of control.
For `CCCCCCCCCCCCCCCCS(=O)(=O)N/N=C(\c1ccc(C(C)C)cc1)N1CCOCC1`, the T/C [3] was 90 % of control, the T/C [4] was 89 % of control and the T/C [5] was 90 % of control.
In the case of `CC(Nc1nccs1)Nc1nccs1`, the T/C [6] is reported as 102 % of control and 96 % of control, the T/C [7] is reported as 108 % of control and 98 % of control and the T/C [8] is reported as 102 % of control and 97 % of control. The T/C [9] was 111 % of control and the T/C [10] was 109 % of control.
With `N#Cc1c(NC(=O)C(Cl)(Cl)Cl)sc2c1CCCC2` the T/C (dose: 50.0 mg/kg/injection, schedule: Q01DX005 (ip), vehicle: saline with Tween-80) was 105 % of control, the T/C (dose: 100.0 mg/kg/injection, schedule: Q01DX005 (ip), vehicle: saline with Tween-80) was 110 % of control and the T/C (dose: 200.0 mg/kg/injection, schedule: Q01DX005 (ip), vehicle: saline with Tween-80) was 117 % of control.
`CC(C)N[C@@H]1CCC[C@H]1O` was tested, and the T/C (dose: 100.0 mg/kg/injection, schedule: Q01DX001 (ip), vehicle: Klucel (hydroxypropylcellulose) (HPC)) was 105 % of control, the T/C (dose: 200.0 mg/kg/injection, schedule: Q01DX001 (ip), vehicle: Klucel (hydroxypropylcellulose) (HPC)) was 113 % of control and the T/C (dose: 400.0 mg/kg/injection, schedule: Q01DX001 (ip), vehicle: Klucel (hydroxypropylcellulose) (HPC)) was 115 % of control.
`O=[N+]([O-])c1cccc(S(=O)(=O)N/N=C/c2cccc([N+](=O)[O-])c2O)c1` was tested, and the T/C [11] was 106 % of control, the T/C [12] was 107 % of control and the T/C (dose: 240.0 mg/kg/injection, schedule: Q01DX005 (ip), vehicle: saline with Tween-80) was 104 % of control.
With `C/C(=N\O)c1cc(/C(C)=N/O)cc(/C(C)=N/O)c1` the T/C [13] was 108 % of control and the T/C [1] was 92 % of control.
`COC(=O)CC(OC1CC(N)C(O)C(C)O1)c1c(O)c2c(c(O)c1CO)C(=O)c1cccc(OC)c1C2=O` (stereo not given) was tested, and the T/C (dose: 100.0 mg/kg/injection, schedule: Q04DX003 (ip), vehicle: water) was 105 % of control and the T/C (dose: 200.0 mg/kg/injection, schedule: Q04DX003 (ip), vehicle: water) was 121 % of control.
For `O=c1c2ccccc2c(=O)n2n1CCC2O` (stereo not given), the T/C [13] was 108 % of control, the T/C [1] was 101 % of control and the T/C [2] was 101 % of control.
`CC12CC3CC(C)(C1)CC(OCCN)(C3)C2` was tested, and the T/C [11] was 101 % of control and the T/C [12] was 104 % of control.
In the case of `C[CH2][Sn]([CH2]C)([S]CCS(=O)(=O)O)[S]CCS(=O)(=O)O` (tested in a mixture with another compound), the T/C (dose: 7.5 mg/kg/injection, schedule: Q01DX005 (ip), vehicle: saline) is reported as 123 % of control.
For `C=C(C)C(=O)OC1CCC2Cc3occ(C)c3C(OC(=O)C=C(C)C)C2(C)C1C` (stereo not given), the T/C (dose: 10.0 mg/kg/injection, schedule: Q01DX009 (ip), vehicle: saline with Tween-80) was 103 % of control, the T/C (dose: 20.0 mg/kg/injection, schedule: Q01DX009 (ip), vehicle: saline with Tween-80) was 101 % of control and the T/C (dose: 40.0 mg/kg/injection, schedule: Q01DX009 (ip), vehicle: saline with Tween-80) was 100 % of control. For the same compound, the T/C (dose: 80.0 mg/kg/injection, schedule: Q01DX009 (ip), vehicle: saline with Tween-80) was 98 % of control.
In the case of `COc1c(C)n(CCO)ccc1=O`, the T/C [14] is reported as 102 % of control and 104 % of control, the T/C [15] is reported as 99 % of control and 100 % of control and the T/C (dose: 200.0 mg/kg/injection, schedule: Q01DX005 (ip), vehicle: saline) is reported as 99 % of control and 100 % of control. The T/C (dose: 400.0 mg/kg/injection, schedule: Q01DX005 (ip), vehicle: saline) was 99 % of control and 103 % of control.
With `CC(N)C(=O)NC(C(=O)NC1C(O)OC(CO)C(O)C1O)C(C)C` (stereo not given) the T/C (dose: 60.0 mg/kg/injection, schedule: Q01DX005 (ip), vehicle: saline) was 99 % of control, the T/C (dose: 120.0 mg/kg/injection, schedule: Q01DX005 (ip), vehicle: saline) was 104 % of control and the T/C (dose: 240.0 mg/kg/injection, schedule: Q01DX005 (ip), vehicle: saline) was 97 % of control.
With `C(=P(c1ccccc1)(c1ccccc1)c1ccccc1)[P+](c1ccccc1)(c1ccccc1)c1ccccc1` the T/C (dose: 3.12 mg/kg/injection, schedule: Q01DX009 (ip), vehicle: saline) was 111 % of control, the T/C (dose: 3.12 mg/kg/injection, schedule: Q01DX009 (ip), vehicle: suspension in saline) was 111 % of control and the T/C (dose: 6.25 mg/kg/injection, schedule: Q01DX009 (ip), vehicle: saline) was 104 % of control. For the same compound, the T/C (dose: 6.25 mg/kg/injection, schedule: Q01DX009 (ip), vehicle: suspension in saline) was 112 % of control and the T/C (dose: 12.5 mg/kg/injection, schedule: Q01DX009 (ip), vehicle: suspension in saline) was 119 % of control.
With `C=CCSc1ncnc2nc[nH]c12` the T/C [9] was 100 % of control, the T/C [10] was 109 % of control and the T/C (dose: 100.0 mg/kg/injection, schedule: Q04DX003 (ip), vehicle: saline with Tween-80) was 104 % of control. For the same compound, the T/C (dose: 200.0 mg/kg/injection, schedule: Q04DX003 (ip), vehicle: saline with Tween-80) was 104 % of control.
In the case of `O=[N+]([O-])c1ccc(N(CCO)CCO)c2c1no[n+]2[O-]`, the T/C (dose: 3.12 mg/kg/injection, schedule: Q01DX005 (ip), vehicle: saline with Tween-80) is reported as 117 % of control, the T/C (dose: 6.25 mg/kg/injection, schedule: Q01DX005 (ip), vehicle: saline with Tween-80) is reported as 122 % of control and the T/C (dose: 8.0 mg/kg/injection, schedule: Q04DX003 (ip), vehicle: saline) is reported as 111 % of control. For the same compound, the T/C (dose: 16.0 mg/kg/injection, schedule: Q04DX003 (ip), vehicle: saline) was 121 % of control.
`OCC1OC2OC3C(CO)OC(OC4C(CO)OC(OC5C(CO)OC(OC6C(CO)OC(OC7C(CO)OC(OC1C(O)C2O)C(O)C7O)C(O)C6O)C(O)C5O)C(O)C4O)C(O)C3O` (stereo not given) was tested, and the T/C [13] was 94 % of control, the T/C [1] was 89 % of control and the T/C [2] was 96 % of control.
For `Cc1c(Cl)ccc2c1NC(=O)C2(O)CC(=O)c1ccccc1` (stereo not given), the T/C [16] was 99 % of control, the T/C [17] was 97 % of control and the T/C [18] was 99 % of control.
For `CCN(CC)CCCNc1cc(OC)cc2nc3ccccc3nc12`, the T/C (dose: 12.5 mg/kg/injection, schedule: Q01DX005 (ip), vehicle: saline) was 104 % of control, the T/C (dose: 25.0 mg/kg/injection, schedule: Q01DX005 (ip), vehicle: saline) was 104 % of control and the T/C [14] was 99 % of control and 112 % of control. The T/C [15] was 114 % of control.
In the case of `CCCCCCCCCCCCS(=O)(=O)O`, the T/C (dose: 3.12 mg/kg/injection, schedule: Q01DX009 (ip), vehicle: saline with Tween-80) is reported as 119 % of control, the T/C [6] is reported as 111 % of control and 119 % of control and the T/C [7] is reported as 110 % of control and 112 % of control.
With `COc1cc2c(c(OC)c1OC)-c1ccc(SC)c(=O)cc1C(NC(=O)COP(=O)(O)OCC(=O)NC1CCc3cc(OC)c(OC)c(OC)c3-c3ccc(SC)c(=O)cc31)CC2` (stereo not given) the T/C (dose: 0.78 mg/kg/injection, schedule: Q01DX009 (ip), vehicle: water) was 121 % of control, the T/C (dose: 1.56 mg/kg/injection, schedule: Q01DX009 (ip), vehicle: water) was 114 % of control and the T/C (dose: 6.25 mg/kg/injection, schedule: Q01DX009 (ip), vehicle: water) was 150 % of control.
With `c1ccc2[nH]c(-c3nc4ccccc4s3)cc2c1` the T/C [3] was 106 % of control, the T/C [4] was 108 % of control and the T/C [5] was 98 % of control.
In the case of `C=C1C(=O)C23C(O)CC4C(C)(C)C(OC(C)=O)C(OC(C)=O)CC4(C)C2CCC1C3O` (stereo not given), the T/C (dose: 11.88 mg/kg/injection, schedule: Q01DX005 (ip), vehicle: Klucel (hydroxypropylcellulose) (HPC)) is reported as 115 % of control, the T/C (dose: 23.75 mg/kg/injection, schedule: Q01DX005 (ip), vehicle: Klucel (hydroxypropylcellulose) (HPC)) is reported as 112 % of control and the T/C (dose: 47.5 mg/kg/injection, schedule: Q01DX005 (ip), vehicle: Klucel (hydroxypropylcellulose) (HPC)) is reported as 112 % of control.
For `O=C1OC2(c3ccc(O)cc3Oc3cc(O)ccc32)C2C3C=CC(C3)C12` (stereo not given), the T/C [16] was 100 % of control, the T/C [17] was 104 % of control and the T/C [18] was 100 % of control.
`O=C1N(c2ccccc2)C(=O)N1c1ccccc1` was tested, and the T/C [8] was 93 % of control, the T/C [9] was 99 % of control and the T/C [10] was 108 % of control. The T/C (dose: 200.0 mg/kg/injection, schedule: Q01DX009 (ip), vehicle: saline with Tween-80) was 97 % of control.
